Test results as given in publication PMC5429621 (Scientific Reports, 2017).
Changes are numbered by the printed parent chain.

Tests used:
[1] = target: P2X7 receptor (P2X7R); conditions: read-out: ATP EC50, physiological concentrations of calcium and magnesium; cited from earlier work
[2] = system: tumour growth; set-up: method as in PMID 22505653; conditions: cited from earlier work
[3] = system: hP2X7-2Nβ 74–79 C mutants; experiment: two-electrode voltage clamp, Xenopus oocytes; type: cell-based, human; conditions: response to EC90 ATP
Description: (§1) The hP2X1R was a gift from Dr Lin-Hua Jiang (University of Leeds, UK) and the hP2X1R cDNA has been described previously. Chimeras were generated by megaprimer-mediated domain swapping. In addition to chimeras, point mutations, deletions and insertions were made using the QuikChange (Stratagene) or Q5 (New England Bioscience) mutagenesis kits. The production of the correct mutations and absence of coding errors was verified by DNA sequencing (Automated ABI Sequencing Service, University of Leicester, UK).
P2XR constructs were transcribed to produce sense-strand cRNA (mMessage mMachine, Ambion, Austin, TX). […]
Two-electrode voltage clamp recordings were carried out using a GeneClamp 500B amplifier with a Digidata 1322 A analog to digital convertor and pCLAMP 8.2 acquisition software (Molecular Devices, Menolo Park, CA) at a holding potential of −60 mV. ATP (sodium salt, Sigma) was applied via a U-tube perfusion system for 3 s at 3–5 minute intervals to allow reproducible responses to be recorded. […]
Concentration response curves were normalized to the maximal response and fitted with the Hill equation (variable slope) with GraphPad Prism 6 (Graphpad software, San Diego, CA). […] Any significant differences were calculated by one-way analysis of variance, followed by Bonferroni’s test (using GraphPad Prism 6). […]

[4] = target: T1, hP2X7-2Nβ K110Y (Homo sapiens, UniProt Q99572, I21V/K110Y/M24R/N16P/N25R/Q22R/R20V/S23N/T19I/Y26L); experiment: two-electrode voltage clamp, Xenopus oocytes; type: cell-based; conditions: relative to P2X7-2Nβ
T1 construct: expressed in transfected cells; host or cells: Xenopus laevis oocytes (cRNA injection)
T1 sequence (Q99572 1-595 N16P/T19I/R20V/I21V/Q22R/S23N/M24R/N25R/Y26L/K110Y): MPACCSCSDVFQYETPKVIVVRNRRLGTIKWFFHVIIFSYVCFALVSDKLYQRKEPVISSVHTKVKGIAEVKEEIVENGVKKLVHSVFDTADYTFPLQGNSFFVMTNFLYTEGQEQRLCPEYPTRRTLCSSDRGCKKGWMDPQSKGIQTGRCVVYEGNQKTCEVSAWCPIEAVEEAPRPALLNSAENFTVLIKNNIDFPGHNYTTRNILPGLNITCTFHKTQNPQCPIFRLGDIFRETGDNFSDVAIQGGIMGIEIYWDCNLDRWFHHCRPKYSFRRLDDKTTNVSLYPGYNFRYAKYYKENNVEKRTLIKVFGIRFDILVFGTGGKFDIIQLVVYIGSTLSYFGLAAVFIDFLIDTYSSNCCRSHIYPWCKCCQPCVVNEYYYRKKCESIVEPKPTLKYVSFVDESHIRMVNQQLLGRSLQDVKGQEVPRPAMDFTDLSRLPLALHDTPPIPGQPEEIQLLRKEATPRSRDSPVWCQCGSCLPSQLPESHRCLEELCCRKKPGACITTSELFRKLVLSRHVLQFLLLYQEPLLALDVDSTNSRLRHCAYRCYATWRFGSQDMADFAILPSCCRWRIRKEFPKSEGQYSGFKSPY
Description: as §1
(§2) P2XR constructs were transcribed to produce sense-strand cRNA (mMessage mMachine, Ambion, Austin, TX). Manually defoliculated stage V Xenopus laevis oocytes were injected with 50 nl (50 ng) of cRNA using an Inject + Matic microinjector (J.A. Gaby, InjectMatic, Geneva, Switzerland) and stored at 16 °C in ND96 buffer (in mM, NaCl 96, KCl 2, CaCl2 1.8, MgCl2 1, sodium pyruvate 5, HEPES 5 (pH 7.6) supplemented with 50 µg/ml gentamycin and 50 µg/ml tetracycline). For electrophysiological recordings (3–7 days post-injection) oocytes were bathed in divalent free ND96 buffer (in mM, NaCl 96, KCl 2, sodium pyruvate 5, HEPES 5 and 0.1 flufenamic acid, pH 7.6).
(§3) ATP (sodium salt, Sigma) was applied via a U-tube perfusion system for 3 s at 3–5 minute intervals to allow reproducible responses to be recorded. […] To standardize for any change in ATP sensitivity at mutant receptors antagonists were co-applied with an EC90 concentration of ATP.
(§4) Concentration response curves were normalized to the maximal response and fitted with the Hill equation (variable slope) with GraphPad Prism 6 (Graphpad software, San Diego, CA). […] Individual concentration response curves were generated for individual experiments and statistical analysis was carried out on the data generated. In the figures the inhibition curves are fitted to the mean normalized data. Any significant differences were calculated by one-way analysis of variance, followed by Bonferroni’s test (using GraphPad Prism 6). Data are shown as mean ± SEM.

[5] = target: T2, hP2X7-2Nβ K297G (Homo sapiens, UniProt Q99572, I21V/K297G/M24R/N16P/N25R/Q22R/R20V/S23N/T19I/Y26L); experiment: two-electrode voltage clamp, Xenopus oocytes; type: cell-based; conditions: relative to P2X7-2Nβ
T2 construct: expressed in transfected cells; host or cells: Xenopus laevis oocytes (cRNA injection)
T2 sequence (Q99572 1-595 N16P/T19I/R20V/I21V/Q22R/S23N/M24R/N25R/Y26L/K297G): T1 sequence (Q99572 1-595 N16P/T19I/R20V/I21V/Q22R/S23N/M24R/N25R/Y26L/K110Y) with Y110K, K297G
Description: as §1, §2, §3, §4

SMILES | EC50 [1] [µM] | effect of AZ10606120 treatment in animal studies (tumour) [2] | level of inhibition to 30 nM AZ10606120 [3] | increase in sensitivity to AZ10606120 [4] | increase in AZ10606120 sensitivity [5] [fold]
Nc1ncnc2c1ncn2[C@@H]1O[C@H](COP(=O)(O)OP(=O)(O)OP(=O)(O)O)[C@@H](O)[C@H]1O [ATP] | 300 to 1000 | – | – | – | –
Cl.Cl.O=C(CC12CC3CC(CC(C3)C1)C2)Nc1cccc2nc(NCCNCCO)ccc12 [AZ10606120, N-[2-[[2-[(2-Hydroxyethyl)amino]ethyl]amino]-5-quinolinyl]-2-tricyclo[3.3.1.13,7]dec-1-ylacetamide dihydrochloride] | – | reduced tumour growth | ~ 70% | ~ 100 fold | > 100
